Source: ChEMBL document CHEMBL1201862, “PubChem BioAssay data set” (2004)
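Dose response: 5 concentrations. Exposure: 48 h. Format: 96-well plates. Endpoint: linear interpolation; highest concentration if not reached. At the GI50, growth is halved.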 Active and inactive are the calls of the source. Cut-off read from the data, not from the text of the source: active = GI50 up to about 1.1 µM and inactive = higher.

Experiments:
Test in all cases: growth of human tumour cells (NCI), 48 h
[1] = test system: K562
[2] = test system: OVCAR-4
[3] = test system: SK-OV-3
[4] = test system: Hs-578T
[5] = test system: SNB-75
[6] = test system: COLO 205
[7] = test system: DU-145
[8] = test system: MDA-MB-231
[9] = test system: SK-MEL-5
[10] = test system: HCT-15
[11] = test system: 786-0
[12] = test system: MDA-N
[13] = test system: CAKI-1
[14] = test system: SK-MEL-2
[15] = test system: NCI-H460
[16] = test system: HCC 2998
[17] = test system: SF-295
[18] = test system: RPMI-8226
[19] = test system: HL-60
[20] = test system: LOX IMVI

COC12C=CC(CC1)C(C)(C)C2=O (stereo unspecified)
GI50 [1]: > 100 µM (inactive)
GI50 [2]: > 100 µM (inactive)
GI50 [3]: > 100 µM (inactive)
GI50 [4]: > 100 µM (inactive)
GI50 [5]: > 100 µM (inactive)
GI50 [6]: > 100 µM (inactive)
GI50 [7]: > 100 µM (inactive)
GI50 [8]: > 100 µM (inactive)
GI50 [9]: > 100 µM (inactive)
GI50 [10]: > 100 µM
GI50 [11]: > 100 µM (inactive)
GI50 [12]: > 100 µM (inactive)
GI50 [13]: > 100 µM (inactive)
GI50 [14]: > 100 µM (inactive)
GI50 [15]: > 100 µM (inactive)
GI50 [16]: > 100 µM (inactive)
GI50 [17]: > 100 µM (inactive)
GI50 [18]: > 100 µM (inactive)
GI50 [19]: > 100 µM (inactive)

CCC(c1ccc(N(C)C)cc1)C1NC(=S)NC1=O (stereo unspecified)
GI50 [1]: 20.1 µM (inactive)
GI50 [2]: 62.7 µM (inactive)
GI50 [3]: > 100 µM (inactive)
GI50 [4]: > 100 µM (inactive)
GI50 [5]: 85.9 µM (inactive)
GI50 [6]: 98.2 µM (inactive)
GI50 [7]: > 100 µM (inactive)
GI50 [8]: > 100 µM (inactive)
GI50 [9]: 37.8 µM (inactive)
GI50 [10]: 40.2 µM
GI50 [11]: > 100 µM (inactive)
GI50 [12]: 59.7 µM (inactive)
GI50 [13]: > 100 µM (inactive)
GI50 [15]: > 100 µM (inactive)
GI50 [16]: > 100 µM (inactive)
GI50 [20]: 97.9 µM (inactive)
GI50 [17]: 67.9 µM (inactive)
GI50 [18]: 46 µM (inactive)
GI50 [19]: 17.5 µM (inactive)

S=C1Nc2cnc3ccccc3c2SC1c1ccccc1 (stereo unspecified)
GI50 [1]: > 100 µM (inactive)
GI50 [2]: > 100 µM (inactive)
GI50 [3]: 72.8 µM (inactive)
GI50 [4]: 49.9 µM (inactive)
GI50 [5]: 28.4 µM (inactive)
GI50 [6]: > 100 µM (inactive)
GI50 [7]: > 100 µM (inactive)
GI50 [8]: > 100 µM (inactive)
GI50 [9]: > 100 µM (inactive)
GI50 [10]: > 100 µM
GI50 [11]: > 100 µM (inactive)
GI50 [12]: > 100 µM (inactive)
GI50 [13]: > 100 µM (inactive)
GI50 [15]: > 100 µM (inactive)
GI50 [20]: 97.5 µM (inactive)
GI50 [17]: 61.7 µM (inactive)
GI50 [18]: > 100 µM (inactive)
GI50 [19]: > 100 µM (inactive)

O=C(Nc1nncs1)NS(=O)(=O)n1cnc2ccccc21
GI50 [2]: > 100 µM (inactive)
GI50 [3]: > 100 µM (inactive)
GI50 [4]: > 100 µM (inactive)
GI50 [5]: > 100 µM (inactive)
GI50 [6]: > 100 µM (inactive)
GI50 [7]: > 100 µM (inactive)
GI50 [8]: > 100 µM (inactive)
GI50 [9]: > 100 µM (inactive)
GI50 [10]: > 100 µM
GI50 [11]: > 100 µM (inactive)
GI50 [12]: > 100 µM (inactive)
GI50 [13]: > 100 µM (inactive)
GI50 [14]: > 100 µM (inactive)
GI50 [15]: > 100 µM (inactive)
GI50 [16]: > 100 µM (inactive)
GI50 [17]: > 100 µM (inactive)
GI50 [18]: > 100 µM (inactive)
GI50 [19]: > 100 µM (inactive)

O=C(O)C(Cc1ccc2c(c1)CCC2)(Cc1ccc2c(c1)CCC2)C(=O)O
GI50 [1]: > 100 µM (inactive)
GI50 [2]: > 100 µM (inactive)
GI50 [3]: > 100 µM (inactive)
GI50 [4]: > 100 µM (inactive)
GI50 [5]: > 100 µM (inactive)
GI50 [6]: > 100 µM (inactive)
GI50 [7]: > 100 µM (inactive)
GI50 [8]: 29.2 µM (inactive)
GI50 [9]: > 100 µM (inactive)
GI50 [10]: > 100 µM
GI50 [11]: > 100 µM (inactive)
GI50 [12]: > 100 µM (inactive)
GI50 [14]: > 100 µM (inactive)
GI50 [15]: > 100 µM (inactive)
GI50 [16]: > 100 µM (inactive)
GI50 [20]: > 100 µM (inactive)
GI50 [17]: > 100 µM (inactive)
GI50 [18]: > 100 µM (inactive)
GI50 [19]: > 100 µM (inactive)

Cc1cn(CCCC2=NCCCN2)c(=O)[nH]c1=O
GI50 [1]: > 100 µM (inactive)
GI50 [2]: > 100 µM (inactive)
GI50 [3]: > 100 µM (inactive)
GI50 [4]: > 100 µM (inactive)
GI50 [5]: > 100 µM (inactive)
GI50 [6]: > 100 µM (inactive)
GI50 [7]: > 100 µM (inactive)
GI50 [8]: > 100 µM (inactive)
GI50 [9]: > 100 µM (inactive)
GI50 [10]: > 100 µM
GI50 [11]: > 100 µM (inactive)
GI50 [12]: > 100 µM (inactive)
GI50 [13]: > 100 µM (inactive)
GI50 [14]: > 100 µM (inactive)
GI50 [15]: > 100 µM (inactive)
GI50 [16]: > 100 µM (inactive)
GI50 [20]: > 100 µM (inactive)
GI50 [17]: > 100 µM (inactive)
GI50 [18]: 79.1 µM (inactive)

CC(C)C(=O)CP(=O)(O)O
GI50 [1]: > 100 µM (inactive)
GI50 [2]: > 100 µM (inactive)
GI50 [3]: > 100 µM (inactive)
GI50 [4]: > 100 µM (inactive)
GI50 [5]: > 100 µM (inactive)
GI50 [6]: > 100 µM (inactive)
GI50 [7]: > 100 µM (inactive)
GI50 [8]: > 100 µM (inactive)
GI50 [9]: > 100 µM (inactive)
GI50 [10]: > 100 µM
GI50 [11]: > 100 µM (inactive)
GI50 [12]: > 100 µM (inactive)
GI50 [13]: > 100 µM (inactive)
GI50 [14]: > 100 µM (inactive)
GI50 [15]: > 100 µM (inactive)
GI50 [20]: > 100 µM (inactive)
GI50 [17]: > 100 µM (inactive)
GI50 [18]: > 100 µM (inactive)
GI50 [19]: > 100 µM (inactive)
